Reference: patent EP0641797A1, “Cephem derivatives and antimicrobial agents containing the same” (KATAYAMA SEIYAKUSYO CO. Ltd., priority 1993, dated 1995)
Converted amounts (≈) assume the structure as drawn.

Assays:
Experiment in all cases: MIC on standard strains, standard method of Japan Society of Chemotherapy
Type in all cases: cell-based
[1] = test system: M. morganii IFO 3848; settings: Morganella morganii, IFO3848
Protocol: (§1) Antimicrobial activity of the compounds of the present invention were measured using CTM (cefotiam) and FMOX (flomoxef) as control drugs in accordance with the standard method of Japan Society of Chemotherapy. Of the 25 standard strains used in this test, Staphylococcus aureus 167 and Staphylococcus aureus 195 belong to MRSA.
(§2) In these tables, drugs tested are shown by the corresponding examples in which they were synthesized.

[2] = test system: P. aeruginosa AKR17; settings: Pseudomonas aeruginosa
Protocol: as §1, §2

[3] = test system: S. aureus 195; settings: Staphylococcus aureus; S. aureus 195 (MRSA)
Protocol: as §1, §2

[4] = test system: E. coli CSH2(RK1); settings: Escherichia coli
Protocol: as §1, §2

[5] = test system: E. coli NHIJ JC-2; settings: Escherichia coli, NHIJJC2
Protocol: as §1, §2

[6] = test system: B. subtilis ATCC 6633; settings: Bacillus subtilis, ATCC6633, B. subtilis ATCC 6633; read-out: MIC
Protocol: as §1, §2

[7] = test system: A. faecalis ATCC 3750; settings: Alcaligenes faecalis, ATCC3750, A. faecalis ATCC 3750; read-out: MIC
Protocol: as §1, §2

[8] = test system: A. calcoaceticos T59; settings: read-out: MIC
Protocol: as §1, §2

[9] = test system: P. cepacia; settings: Burkholderia cepacia, read-out: MIC
Protocol: as §1, §2

[10] = test system: P. aeruginosa NCTC 10490; settings: Pseudomonas aeruginosa, NCTC10490, P. aeruginosa NCTC 10490; read-out: MIC
Protocol: as §1, §2

[11] = test system: E. coli CSH2(RE45); settings: Escherichia coli
Protocol: as §1, §2

[12] = test system: S. marcescens No. 16-2; settings: Serratia marcescens, NO.162
Protocol: as §1, §2

[13] = test system: P. vulugaris OX-19
Protocol: as §1, §2

[14] = test system: E. cloacae ATCC 13407; settings: Enterobacter cloacae, ATCC13407, E. cloacae ATCC 13407; read-out: MIC
Protocol: as §1, §2

[15] = test system: K. pneuminiae No. 42
Protocol: as §1, §2

[16] = test system: S. aureus 167; settings: Staphylococcus aureus; S. aureus 167 (MRSA)
Protocol: as §1, §2

[17] = test system: M. luteus ATCC 9341; settings: Micrococcus luteus, ATCC9341
Protocol: as §1, §2

[18] = test system: E. cloacae Nek39; settings: Enterobacter cloacae, NEK39, E. cloacae Nek39; read-out: MIC
Protocol: as §1, §2

[19] = test system: P. mirabilis IFO 3849; settings: Proteus mirabilis, IFO3849, P. mirabilis IFO 3849; read-out: MIC
Protocol: as §1, §2

[20] = test system: S. aureus Smith; settings: Staphylococcus aureus, read-out: MIC
Protocol: as §1, §2

[21] = test system: C. freundii ATCC 8090; settings: Citrobacter freundii, ATCC8090, C. freundii ATCC 8090; read-out: MIC
Protocol: as §1, §2

[22] = test system: K. pneuminiae IFO 3317
Protocol: as §1, §2

[23] = test system: S. epidemidis IAM 1296
Protocol: as §1, §2

[24] = test system: S. aureus 209p JC-1; settings: Staphylococcus aureus, 209P, read-out: MIC
Protocol: as §1, §2

[25] = test system: S. marcescens IAM 1184; settings: Serratia marcescens, IAM1184, S. marcescens IAM 1184; read-out: MIC
Protocol: as §1, §2

Compound | MIC [1] [µg/mL] | MIC [2] [µg/mL] | MIC [3] [µg/mL] | MIC [4] [µg/mL] | MIC [5] [µg/mL] | MIC [6] [µg/mL] | MIC [7] [µg/mL] | MIC [8] [µg/mL] | MIC [9] [µg/mL] | MIC [10] [µg/mL] | MIC [11] [µg/mL] | MIC [12] [µg/mL] | MIC [13] [µg/mL] | MIC [14] [µg/mL] | MIC [15] [µg/mL] | MIC [16] [µg/mL] | MIC [17] [µg/mL] | MIC [18] [µg/mL] | MIC [19] [µg/mL] | MIC [20] [µg/mL] | other results
Nc1nc(/C(=N/O)C(=O)N[C@@H]2C(=O)N3C(C(=O)[O-])=C(C[n+]4ccc(-c5ncon5)cc4)CS[C@H]23)cs1 [Ex. 17, 7β-[2-(2-aminothiazol-4-yl)-2-syn-hydroxyiminoacetamido]-3-[4-(1,2,4-oxadiazol-3-yl)pyridinio]methyl-3-cephem-4-carboxylate] | 0.2 (≈ 0.378 µM) | > 100 | 3.13 (≈ 5.92 µM) | 0.78 (≈ 1.48 µM) | 0.39 (≈ 0.738 µM) | 0.39 (≈ 0.738 µM) | 3.13 (≈ 5.92 µM) | 12.5 (≈ 23.7 µM) | > 100 | 3.13 (≈ 5.92 µM) | 0.78 (≈ 1.48 µM) | > 100 | 0.39 (≈ 0.738 µM) | 6.25 (≈ 11.8 µM) | 0.78 (≈ 1.48 µM) | 6.25 (≈ 11.8 µM) | 0.1 (≈ 0.189 µM) | 50 (≈ 94.6 µM) | 0.39 (≈ 0.738 µM) | 0.78 (≈ 1.48 µM) | MIC [21]: 0.39 µg/mL (≈ 0.738 µM); MIC [22]: 0.39 µg/mL (≈ 0.738 µM); MIC [23]: 0.2 µg/mL (≈ 0.378 µM); MIC [24]: 0.39 µg/mL (≈ 0.738 µM); MIC [25]: 0.39 µg/mL (≈ 0.738 µM)
Nc1nc(/C(=N/O)C(=O)N[C@@H]2C(=O)N3C(C(=O)[O-])=C(C[n+]4ccc(-c5ncno5)cc4)CS[C@H]23)ns1 [Ex. 6, 7β-[2-(5-amino-1,2,4-thiadiazol-3-yl)-2-syn-hydroxyiminoacetamido]-3-[4-(1,2,4-oxadiazol-5-yl)pyridinio]methyl-3-cephem-4-carboxylate] | 0.39 (≈ 0.737 µM) | > 100 | 6.25 (≈ 11.8 µM) | 1.56 (≈ 2.95 µM) | 0.78 (≈ 1.47 µM) | 0.39 (≈ 0.737 µM) | 3.13 (≈ 5.91 µM) | 6.25 (≈ 11.8 µM) | > 100 | 0.78 (≈ 1.47 µM) | 0.78 (≈ 1.47 µM) | > 100 | 1.56 (≈ 2.95 µM) | 6.25 (≈ 11.8 µM) | 1.56 (≈ 2.95 µM) | 12.5 (≈ 23.6 µM) | 0.1 (≈ 0.189 µM) | 50 (≈ 94.4 µM) | 0.78 (≈ 1.47 µM) | 1.56 (≈ 2.95 µM) | MIC [21]: 0.78 µg/mL (≈ 1.47 µM); MIC [22]: 0.39 µg/mL (≈ 0.737 µM); MIC [23]: 0.39 µg/mL (≈ 0.737 µM); MIC [24]: 0.78 µg/mL (≈ 1.47 µM); MIC [25]: 0.78 µg/mL (≈ 1.47 µM)
Nc1nc(/C(=N/O)C(=O)N[C@@H]2C(=O)N3C(C(=O)[O-])=C(C[n+]4cccc(-c5nsc(N)n5)c4)CS[C@H]23)cs1 [Ex. 12, 7β-[2-(2-aminothiazol-4-yl)-2-syn-hydroxyiminoacetamido]-3-[3-(5-amino-1,2,4-thiadiazol-3-yl)pyridinio]methyl-3-cephem-4-carboxylate] | 0.1 (≈ 0.179 µM) | > 100 | 1.56 (≈ 2.79 µM) | 0.78 (≈ 1.39 µM) | 0.39 (≈ 0.697 µM) | 0.2 (≈ 0.357 µM) | 1.56 (≈ 2.79 µM) | 12.5 (≈ 22.3 µM) | > 100 | 6.25 (≈ 11.2 µM) | 0.39 (≈ 0.697 µM) | 100 (≈ 179 µM) | 0.39 (≈ 0.697 µM) | 3.13 (≈ 5.59 µM) | 0.78 (≈ 1.39 µM) | 6.25 (≈ 11.2 µM) | 0.025 (≈ 0.0447 µM) | 100 (≈ 179 µM) | 0.39 (≈ 0.697 µM) | 0.39 (≈ 0.697 µM) | MIC [21]: 0.39 µg/mL (≈ 0.697 µM); MIC [22]: 0.2 µg/mL (≈ 0.357 µM); MIC [23]: 0.05 µg/mL (≈ 0.0893 µM); MIC [24]: 0.2 µg/mL (≈ 0.357 µM); MIC [25]: 0.78 µg/mL (≈ 1.39 µM)
Nc1nc(/C(=N/O)C(=O)N[C@@H]2C(=O)N3C(C(=O)[O-])=C(C[n+]4cccc(-c5cscn5)c4)CS[C@H]23)cs1 [Ex. 9, 7β-[2-(2-aminothiazol-4-yl)-2-syn-hydroxyiminoacetamido]-3-[3-(thiazol-4-yl)pyridinio]methyl-3-cephem-4-carboxylate iodide] | 0.1 | > 100 | 1.56 | 0.39 | 0.2 | 0.2 | 3.13 | 12.5 | > 100 | 3.13 | 0.39 | 50 | 0.39 | 1.56 | 0.39 | 6.25 | 0.05 | 50 | 0.39 | 0.2 | MIC [21]: 0.2 µg/mL; MIC [22]: 0.2 µg/mL; MIC [23]: 0.05 µg/mL; MIC [24]: 0.1 µg/mL; MIC [25]: 0.39 µg/mL
